Test results reported in patent US7615361B2, “Toxicity screening methods” (Ceetox, Inc., priority 2006, dated 2009).

What was measured:
SK-MEL28 cells = assay: Predicted Ctox from Tox-Panel; type: cell-based, human; settings: SK-MEL28, 24 HR
Method: (§1) Studies such as these indicate that a preferred concentration for setting Ctox is the highest concentration at which there is no observed effect on any of the indicators being measured in the cluster analysis, especially a 24-hour cluster analysis. […] It will be apparent that 24 hour assays are more time-effective, and consequently, the 24 hour NOEL/Ctox represents a preferred data point to select as Ctox in a CATS assay. It will also be apparent that, with further time studies, it may be possible to select an equally suitable Ctox at other CATS assay time points (e.g., between 24 and 72 hours, or less than 24 hours).
(§2) In certain embodiments, the predicting comprises performing concentration response analyses of measurements from at least three separate assays that are employed in the cluster analysis. For example, in the cell health cluster, such predicting will involve monitoring the concentration response effect of the compound on a first health indicator which monitors cellular replication, a second cell health indicator which monitors mitochondrial function, and a third cell health indicator which monitors membrane integrity. Of course, it is understood that fourth, fifth, sixth or more cell health indicators also may be employed. From these concentration response analyses, the highest concentration of the chemical compound at which a measurable toxic effect of the chemical compound is not observable, i.e. NOEL, is determined and the Ctox is identified as the concentration that correlates to the NOEL. In choosing the concentrations of the compound for analysis, one of skill in the art should devise a dose response regimen which is selected to provide an indication of cell health at concentrations of at least two concentration values higher than the Ctox concentration.
(§3) The results are summarized in Tables 14-17 and in FIGS. 83-102. Table 14 compares the test compound TC50 values for each assay endpoint. Test compounds are rank-ordered from most to least toxic based on their TC50 values and overall shape of the response curves. The Ctox value, or estimated sustained blood concentration where toxicity would first be expected to occur in a rat 14-day repeated dose study, is also included in this table. Negative and positive controls are included with every run. Assay response is continually monitored to assure reliable results. […] Table 15 summarizes oxidative stress and apoptosis data, Table 16 summarizes the solubility data, and Table 17 provides information on interaction with PgP.
(§4) The Ctox value was developed using 24 hr in vitro (H4IIE) toxicity data and was validated by retrospectively evaluating compounds across different classes of drugs in 14-day rat studies in which compounds were administered on a daily basis and pharmacokinetic data was available. […] Thus, Ctox values are only determined for the 24 hr in vitro results. In this example, Ctox values could not be estimated due to low toxicity in most of the cell lines.

NHEM cells = assay: Predicted Ctox from Tox-Panel; type: cell-based, human; settings: 24 HR
Method: as §1, §2, §3, §4

HUVEC = assay: Predicted Ctox from Tox-Panel; type: cell-based, human; settings: 24 HR
Method: as §1, §2, §3, §4

NRK cells = assay: Predicted Ctox from Tox-Panel; type: cell-based, rat
Method: as §1, §2
(§5) The third experiment was done to evaluate the specificity and selectivity of the test compound in another non-tumor cell that was derived from normal rat kidney tissue. In this experiment the test compound has no effect on cell number of acute cell death up to the 500 dilution after 6 and 24 hr of exposure (FIG. 76C and 77C). Significant effects were observed on mitochondrial markers at dilutions that dropped pH to 3.7. The bar graph in FIG. 82 summarizes these effects. […] In contrast the rat tumor cell line was sensitive to the test compound and cell death occurred at the 500 dilution and could not be attributed to low pH.

[1] = MemTox membrane leakage (AK / α-GST); type: cell-based; settings: rat, NRK cells, read-out: GST TC50
Method: Membrane Leakage (α-Glutathione S-transferase and/or Adenylate Kinase): The presence of Adenylate Kinase (AK) or α-Glutathione S-transferase (α-GST), both enzyme leakage markers, was measured in the culture medium using an activity assay for Adenylate Kinase and/or an ELISA assay for α-GST. At the end of the exposure period, the medium covering the cells in each well was removed and placed into new 96-well plates with appropriate labeling. […] Luminescence (AK) values were measured with a Packard Fusion or equivalent plate reader, and absorbance (α-GST) values were measured with a Packard SpectraCount™ or equivalent reader at 450 nm and reference absorbance at 650 nm.
Membrane Leakage (α-Glutathione S-transferase and/or Adenylate Kinase): Leakage of Adenylate Kinase or α-GST from the cell into the culture medium was determined by collecting the culture medium at the end of the exposure period. Thus, the values measured represent total enzyme leakage lost over the exposure period. The control for 100% dead or maximum enzyme release was based on cells treated with 1 mM digitonin at the time of dosing. Percent dead cells relative to digitonin treated cells was determined and then subtracted from 100% to yield the percent live cells.
as §5

MTT reduction = type: cell-based; settings: rat, NRK cells, read-out: MTT TC50
Description: Tetrazolium Dye Reduction: 3-[4,5-dimethylthiazol-2-yl]
as §5

human hepatocytes = assay: Predicted Ctox from Tox-Panel; type: cell-based; settings: 24 HR
Method: as §1
In certain embodiments, the predicting comprises performing concentration response analyses of measurements from at least three separate assays that are employed in the cluster analysis. […] From these concentration response analyses, the highest concentration of the chemical compound at which a measurable toxic effect of the chemical compound is not observable, i.e. NOEL, is determined and the Ctox is identified as the concentration that correlates to the NOEL. […]
The results are summarized in Tables 14-17 and in FIGS. 83-102. […] Assay response is continually monitored to assure reliable results. […]

P-glycoprotein (PgP) [2] = target: T1, P-glycoprotein (PgP) (Homo sapiens, UniProt P08183); assay: P-glycoprotein (PgP) binding: MTT with and without cyclosporin A, SK-MEL28 cells; type: cell-based; design: SK-MEL28, human hepatocytes, HUVEC, C32, and NHEM cells were used as the test systems; endogenous in cells; host or cells: SK-MEL28 cells; settings: SK-MEL28 24 HR; for % Control (Compound + CSA): with cyclosporin A; for % Control (Compound): without CSA
T1 sequence (P08183 whole entry): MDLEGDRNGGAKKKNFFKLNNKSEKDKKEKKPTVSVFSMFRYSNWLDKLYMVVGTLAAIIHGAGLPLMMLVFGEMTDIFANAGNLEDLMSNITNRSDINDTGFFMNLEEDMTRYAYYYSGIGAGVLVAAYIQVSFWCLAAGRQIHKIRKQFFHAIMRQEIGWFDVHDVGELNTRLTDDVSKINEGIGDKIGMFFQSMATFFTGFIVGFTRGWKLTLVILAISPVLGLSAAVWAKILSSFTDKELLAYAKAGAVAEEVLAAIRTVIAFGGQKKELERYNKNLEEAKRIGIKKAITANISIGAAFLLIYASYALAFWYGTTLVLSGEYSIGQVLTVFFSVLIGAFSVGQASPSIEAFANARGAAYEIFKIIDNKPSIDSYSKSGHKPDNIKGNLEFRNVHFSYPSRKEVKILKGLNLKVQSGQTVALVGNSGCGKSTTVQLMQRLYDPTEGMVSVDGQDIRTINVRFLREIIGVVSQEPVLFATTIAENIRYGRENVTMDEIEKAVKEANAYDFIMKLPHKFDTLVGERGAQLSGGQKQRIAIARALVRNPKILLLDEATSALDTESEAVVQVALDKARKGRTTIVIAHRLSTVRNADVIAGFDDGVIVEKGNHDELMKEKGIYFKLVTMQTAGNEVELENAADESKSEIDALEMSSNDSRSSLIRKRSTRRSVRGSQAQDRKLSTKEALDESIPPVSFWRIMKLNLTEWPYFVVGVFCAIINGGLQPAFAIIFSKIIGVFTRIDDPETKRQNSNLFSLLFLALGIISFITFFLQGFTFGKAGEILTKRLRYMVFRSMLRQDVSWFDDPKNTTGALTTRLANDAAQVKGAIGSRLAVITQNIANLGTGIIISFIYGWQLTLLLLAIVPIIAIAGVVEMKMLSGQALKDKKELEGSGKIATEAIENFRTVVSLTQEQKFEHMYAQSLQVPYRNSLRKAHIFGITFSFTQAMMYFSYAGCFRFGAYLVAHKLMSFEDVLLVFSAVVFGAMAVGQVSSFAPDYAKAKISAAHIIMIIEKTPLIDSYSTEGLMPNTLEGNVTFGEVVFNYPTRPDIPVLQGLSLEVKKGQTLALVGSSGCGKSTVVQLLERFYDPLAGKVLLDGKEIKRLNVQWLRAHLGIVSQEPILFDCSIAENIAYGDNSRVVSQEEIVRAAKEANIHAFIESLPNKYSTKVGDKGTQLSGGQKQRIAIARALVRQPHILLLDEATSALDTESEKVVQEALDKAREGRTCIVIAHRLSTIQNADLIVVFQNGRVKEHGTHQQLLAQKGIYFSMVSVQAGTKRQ

P-glycoprotein (PgP) [3] = target: T1, P-glycoprotein (PgP); assay: P-glycoprotein (PgP) binding: MTT with and without cyclosporin A, HUVEC; type: cell-based; design: SK-MEL28, human hepatocytes, HUVEC, C32, and NHEM cells were used as the test systems; endogenous in cells; settings: HUVEC 24 HR; for % Control (Compound + CSA): with cyclosporin A; for % Control (Compound): without CSA

SMILES	Predicted Ctox (SK-MEL28 cells) [µM]	Predicted Ctox (SK-MEL28 cells; run #2) [µM]	Predicted Ctox (NHEM cells) [µM]	Predicted Ctox (HUVEC) [µM]	Predicted Ctox (NRK cells; 6 HR) [µM]	Predicted Ctox (NRK cells; 24 HR) [µM]	CC50 at 6 h [1] [µM]	CC50 at 24 h [1] [µM]	CC50 at 6 h (MTT reduction) [µM]	CC50 at 24 h (MTT reduction) [µM]	Predicted Ctox (human hepatocytes) [µM]	% Control (Compound + CSA) (P-glycoprotein (PgP) [2]) [%]	% Control (Compound) (P-glycoprotein (PgP) [2]) [%]	% Control (Compound + CSA) (P-glycoprotein (PgP) [3]) [%]	% Control (Compound) (P-glycoprotein (PgP) [3]) [%]
CC[C@@]1(O)C(=O)OCc2c1cc1n(c2=O)Cc2cc3ccccc3nc2-1 [CAMPTOTHECIN, Camptothecin]	0.1	0.1	33	0.1	0.1	0.1	300	100	300	100	23	63.3	56.5	18.0	29.4
C=C(C)[C@H]1Cc2c(ccc3c2O[C@@H]2COc4cc(OC)c(OC)cc4[C@@H]2C3=O)O1 [ROTENONE, Rotenone]	1	0	10	0.1	1	1	10	10	10	10	0.6	117.3	98.2	77.8	75.4
